Laboratory results taken from US20100292205A1, “Pyrimidone Compounds As GSK-3 Inhibitors” (PFIZER INC., priority 2006, published 2010).

What follows are molecules tested against T1, Recombinant human GSK3β (Homo sapiens, UniProt P49841) (assay: GSK-3β (Glycogen Synthase Kinase) cell free enzyme assay). Settings: 1 μM; Examples 157-199; read-out: Percent inhibition at 1 μM.
T1 construct: His-tag; made in house; host or cells: Sf9 insect cells / baculovirus
T1 sequence (P49841 whole entry): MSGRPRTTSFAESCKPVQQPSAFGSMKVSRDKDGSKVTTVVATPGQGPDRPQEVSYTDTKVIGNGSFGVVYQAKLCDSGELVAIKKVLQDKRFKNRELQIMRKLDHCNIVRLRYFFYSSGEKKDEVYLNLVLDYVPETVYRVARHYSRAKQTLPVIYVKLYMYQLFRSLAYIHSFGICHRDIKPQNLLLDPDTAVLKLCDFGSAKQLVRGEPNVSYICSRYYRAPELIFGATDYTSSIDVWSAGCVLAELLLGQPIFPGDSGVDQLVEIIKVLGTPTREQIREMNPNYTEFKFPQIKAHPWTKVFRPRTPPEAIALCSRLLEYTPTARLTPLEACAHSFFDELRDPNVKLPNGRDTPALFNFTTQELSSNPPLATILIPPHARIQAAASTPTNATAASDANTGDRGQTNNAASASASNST
Assay type: biochemical
Protocol: Assay Protocol for GSK-3β (Glycogen Synthase Kinase) in a Cell Free Enzyme Assay
Recombinant human GSK3β was expressed in SF9/Baculo virus cells. His-tag protein was purified by affinity chromatography to a Ni-NTA Superflow column. Enzyme activity was assayed as the incorporation of [33P] from the gamma phosphate of [33P]ATP (PerkinElmer) into biotinylated peptide substrate bio-LC-S-R-H-S-S-P-H-Q-pS-E-D-E-E-E-OH (Anaspec). Reactions were carried out in a buffer containing 8 mM MOPS (pH 7.0), 10 mM Magnesium Acetate, 0.2 mM EDTA, 1 mM DTT and 2 uM cold ATP. The 33P-ATP was added for 0.025 uCi/well (120 uL) and the final concentration of substrate was 1.0 uM. Enzyme was preincubated with test agent for 30 minutes at room temperature followed by initiation of the reaction by the addition of substrate mix. Incubations were carried out at RT for 60 min. Reactions were stopped by addition of 0.66 volume of buffer containing: 12.5 mM EDTA, 0.25% Triton-X 100, 125 uM ATP, and 6.2 mg/ml streptavidin coated SPA beads (Amersham) in PBS without Ca or Mg. Radioactivity associated with the beads was quantified by scintillation counting of CPM in a Trilux counter (PerkinElmer).
Examples 42 to 60 were prepared using the analogous procedure described to prepare Example 41, substituting the appropriate starting material (Examples 1 to 35) and coupling with the appropriate acid. The assay protocol used is the percent inhibition at 1 μM for GSK-3β in the cell free enzyme assay described above.
In the case of `Cn1c(N[C@H]2CN(S(=O)(=O)c3ccccc3)C[C@@H]2F)nc(-c2ccncc2)cc1=O` [Example 176, 2-{[(3S,4S)-4-Fluoro-1-(phenylsulfonyl)pyrrolidin-3-yl]amino}-3-methy!-6-pyridin-4-ylpyrimidin-4(3H)-one], the inhibition at 1 µM is reported as 96%.
In the case of `Cn1c(NC2CCCN(S(=O)(=O)c3ccccc3)CC2)nc(-c2ccncc2)cc1=O` (stereo not drawn) [Example 170, 3-Methyl-2-{[1-(phenylsulfonyl)azepan-4-yl]amino}-6-pyridin-4-ylpyrimidin-4(3H)-one], the inhibition at 1 µM is reported as 99%.
`Cn1c(N[C@H]2CN(S(C)(=O)=O)C[C@@H]2F)nc(-c2ccncc2)cc1=O` [Example 158, 2-{[(3S,4S)-4-Fluoro-1-(methylsulfonyl)pyrrolidin-3-yl]amino}-3-methyl-6-pyridin-4-ylpyrimidin-4(3H)-one] was tested, and the inhibition at 1 µM was 74%.
With `CCN(c1nc(-c2ccncc2)cc(=O)n1C)C1CCN(S(=O)(=O)Cc2ccccc2)C1` (stereo not drawn) [Example 198, 2-{[1-(Benzylsulfonyl)pyrrolidin-3-yl](ethyl)amino}-3-methyl-6-pyridin-4-ylpyrimidin-4(3H)-one] the inhibition at 1 µM was 97%.

Same assay, conditions: 1 μM; Examples 201-221; read-out: Percent inhibition at 1 μM
For `COC(=O)N1CCCCC(Nc2nc(-c3ccncc3)cc(=O)n2C)C1` (stereo not drawn) [Example 206, Methyl 3-[(1-methyl-6-oxo-4-pyridin-4-yl-16-dihydropyrimidin-2-yl)amino]azepane-1-carboxylate], the inhibition at 1 µM was 94%.
`COC(=O)N1CCC(CNc2nc(-c3ccncc3)cc(=O)n2C)C1` (stereo not drawn) [Example 221, Methyl 3-{[(1-methyl-6-oxo-4-pyridin-4-yl-16-dihydropyrimidin-2-yl)amino]methyl}pyrrolidine-1-carboxylate] was tested, and the inhibition at 1 µM was 71%.

Same assay, conditions: 1 μM; Examples 236-262; read-out: Percent inhibition at 1 μM
With `Cn1c(N2CC[C@@H]3CN(Cc4ccccc4)C[C@@H]32)nc(-c2ccncc2)cc1=O` [Example 251, 2-[(3a,R6,aR)-5-Benzylhexahydropyrro-lo[34-b]pyrrol-1(2H)-yl]-3-methyl-6-pyridin-4-ylpyrimidin-4(3H)-one] the inhibition at 1 µM was 47%.
`CN1CCCC(N(C)c2nc(-c3ccncc3)cc(=O)n2C)CC1` (stereo not drawn) [Example 243, 3-Methyl-2-[methyl(1-methylazepan-4-yl)amino]-6-pyridin-4-ylpyrimidin-4(3H)-one] gave an inhibition at 1 µM of 60%.

Same assay, conditions: 1 μM; GSK-3β cell free enzyme assay; Examples 42-60
“2-{[(3a,S5,S7,aR)-1- Acetyl-3a- methyloctahydro-1H- indol-5- yl](methyl)amino}-3- methyl-6-pyridin-4- ylpyrimidin-4(3H)-one [Example 50]” was tested, and the “Percent inhibition at 1 μM” value was 82%.

Same assay, conditions: 1 μM; GSK-3β cell free enzyme assay; Examples 42-60; read-out: Percent inhibition at 1 μM
`CC(=O)N1C[C@H](F)[C@H](Nc2nc(-c3ccncc3)cc(=O)n2C)C1` [Example 51, 2-{[(3R,4S)-1-Acetyl-4-fluoropyrrolidin-3-yl]amino}-3-methyl-6-pyridin-4-ylpyrimidin-4(3H)-one] was tested, and the inhibition at 1 µM was 78%.
Molecule `CC(=O)N1CCCC(Nc2nc(-c3ccncc3)cc(=O)n2C)CC1` (stereo not drawn) [Example 43, 2-[(1-Acetylazepan-4-yl)amino]-3-methyl-6-pyridin-4-ylpyrimidin-4(3H)-one] has an inhibition at 1 µM of 84%.

Same assay, conditions: cell free enzyme assay; Examples 1-35
In the case of `CC1c2cccn2CCN1c1nc(-c2ccncc2)cc(=O)n1C` (stereo not drawn) [Example 7, 3-Methyl-2-(1-methyl-3,4-dihydropyrrolo[1,2-a]pyrazin-2(1H)-yl)-6-pyridin-4-ylpyrimidin-4(3H)-one], the IC50 is reported as 10.7 nM.
With `CCN(C[C@@H]1CCCN1C(=O)OC(C)(C)C)c1nc(-c2ccncc2)cc(=O)n1C` [Example 4, tert-butyl (2S)-2-{[Ethyl(1-methyl-6-oxo-4-pyridin-4-yl-1,6-dihydropyrimidin-2-yl)amino]methyl} pyrrolidine-1-carboxylate] the IC50 was 4.2 nM.
Molecule `Cn1c(NCCn2c(=O)ccc3ccccc32)nc(-c2ccncc2)cc1=O` [Example 30, 1-{2-[(1-Methyl-6-oxo-4-pyridin-4-yl-1,6-dihydropyrimidin-2-yl)amino]ethyl} quinolin-2(1H)-one] has an IC50 of 25 nM.
`Cn1c(NC2CCCN(C(=O)OC(C)(C)C)CC2)nc(-c2ccncc2)cc1=O` (stereo not drawn) [Example 8, tert-butyl 4-[(1-Methyl-6-oxo-4-pyridin-4-yl-1,6-dihydropyrimidin-2-yl)amino]azepane-1-carboxylate] gave an IC50 of 9.1 nM.
`Cn1c(N[C@H]2[C@@H]3CN(C(=O)OC(C)(C)C)C[C@@H]32)nc(-c2ccncc2)cc1=O` [Example 6, tert-butyl (1R,5S,6s)-6-[(1-Methyl-6-oxo-4-pyridin-4-yl-1,6-dihydropyrimidin-2-yl)amino]-3-azabicyclo[3.1.0] hexane-3-carboxylate] was tested, and the IC50 was 2.8 nM.
In the case of `Cn1c(N2[C@@H]3CC[C@H]2CC(n2cnc4ccccc42)C3)nc(-c2ccncc2)cc1=O` (stereo partly drawn) [Example 16, 2-[(1R,5S)-3-(1H-Benzimidazol-1-yl)-8-azabicyclo[3.2.1]oct-8-yl]-3-methyl-6-pyridin-4-ylpyrimidin-4(3H)-one], the IC50 is reported as 20.5 nM.

Same assay, conditions: cell free enzyme assay; Examples 62-155
`CN(c1nc(-c2ccncc2F)cc(=O)n1C)[C@H]1[C@@H]2CN(C(=O)Cc3cccs3)C[C@@H]21` [Example 146, 6-(3-Fluoropyridin-4-yl)-3-methyl-2-{methyl[(1R,5S,6s)-3-(2-thienylacetyl)-3-azabicyclo[3.1.0]hex-6-yl]amino}pyrimidin-4(3H)-one] was tested, and the IC50 was 6.16 nM.
Molecule `CN(c1nc(-c2ccncc2F)cc(=O)n1C)[C@H]1[C@@H]2CN(C(=O)c3ccccc3C(F)(F)F)C[C@@H]21` [Example 98, 6-(3-Fluoropyridin-4-yl)-3-methyl-2-(methyl{(1R,5S,6s)-3-[2-(trifluoromethyl)benzoyl]-3-azabicyclo[3.1.0]hex-6-yl}amino)pyrimidin-4(3H)-one] has an IC50 of 4.39 nM.
For `CN(c1nc(-c2ccncc2)cc(=O)n1C)C1CCCN(C(=O)Cc2ccccc2)CC1` (stereo not drawn) [Example 88, 3-Methyl-2-{methyl[1-(phenylacetyl)azepan-4-yl]amino}-6-pyridin-4-ylpyrimidin-4(3H)-one], the IC50 was 102 nM.
`Cn1c(N[C@@H]2CN(C(=O)c3ccccc3)C[C@@H]2F)nc(-c2ccncc2)cc1=O` [Example 68, 2-{[(3R,4S)-1-Benzoyl-4-fluoropyrrolidin-3-yl]amino}-3-methyl-6-pyridin-4-ylpyrimidin-4(3H)-one] was tested, and the IC50 was 56 nM.
`COc1cccc(C(=O)N2C[C@@H]3[C@H](C2)[C@H]3N(C)c2nc(-c3ccncc3F)cc(=O)n2C)c1` [Example 99, 6-(3-Fluoropyridin-4-yl)-2-{[(1R,5S,6s)-3-(3-methoxybenzoyl)-3-azabicyclo[3.1.0]hex-6-yl](methyl)amino}-3-methylpyrimidin-4(3H)-one] gave an IC50 of 1.46 nM.
With `Cn1c(NC2CN(C(=O)Cc3ccccc3)C2)nc(-c2ccncc2)cc1=O` [Example 82, 3-Methyl-2-{[1-(phenylacetyl)azetidin-3-yl]amino}-6-pyridin-4-ylpyrimidin-4(3H)-one] the IC50 was 818 nM.

Same assay, conditions: cell free enzyme assay; Examples 222-234
`CN(c1nc(-c2ccncn2)cc(=O)n1C)[C@@H]1CCCN(C(=O)C2CC2)C1` [Example 234, 2-{[(3R)-1-(Cyclopropylcarbonyl)piperi-din-3-yl](methyl)amino}-1-methyl-4,4′-bipyrimidin-6(1H)-one] was tested, and the IC50 was 1.68 nM.
Molecule `COC(=O)N1CCC[C@@H](Nc2nc(-c3ccncc3)cc(=O)n2C)C1` [Example 232, Methyl (3R)-3-[(1-methyl-6-oxo-4-pyridin-4-yl-1,6-dihydropyrimidin-2-yl)amino]piperidine-1-carboxylate] has an IC50 of 0.854 nM.
Work on `CCOC(=O)N1CCCC(N(C)c2nc(-c3ccncn3)cc(=O)n2C)C1` (stereo not drawn) [Example 222, Ethyl 3-[methyl(1-methyl-6-oxo-1,6-dihydro-4,4′-bipyrimidin-2-yl)amino]piperidine-1-carboxylate] yielded an IC50 of 1.14 nM.
For `CCOC(=O)N1CCC[C@@H]1CN(CC)c1nc(-c2ccncn2)cc(=O)n1C` [Example 227, Ethyl (2R)-2-{[ethyl(1-methyl-6-oxo-1,6-dihydro-4,4′-bipyrimidin-2-yl)amino]methyl}pyrrolidine-1-carboxylate], the IC50 was 0.825 nM.

Same assay, conditions: cell free enzyme assay; Examples 265-291
With `CN(c1nc(-c2ccncc2F)cc(=O)n1C)[C@H]1[C@@H]2CN(c3nc4cc(F)ccc4n3C)C[C@@H]21` [Example 266, 2-{[(1R,5S,6s)-3-(5-Fluoro-1-methyl-1H-benzimidazol-2-yl)-3-azabicyclo[3.1.0]hex-6-yl](methyl)amino}-6-(3-fluoropyridin-4-yl)-3-methylpyrimidin-4(3H)-one] the IC50 was 16.7 nM.
`CN(c1nc(-c2ccncc2F)cc(=O)n1C)[C@H]1[C@@H]2CN(c3nc4ccccc4[nH]3)C[C@@H]21` [Example 272, 2-{[(1R,5S,6s)-3-(1H-Benzimidazol-2-yl)-3-azabicyclo[3.1.0]hex-6-yl](methyl)amino}-6-(3-fluoropyridin-4-yl)-3-methylpyrimidin-4(3H)-one] was tested, and the IC50 was 76.1 nM.
With `COc1ccc2oc(N3C[C@@H]4[C@H](C3)[C@H]4N(C)c3nc(-c4ccncc4F)cc(=O)n3C)nc2c1` [Example 267, 6-(3-Fluoropyridin-4-yl)-2-{[(1R,5S,6s)-3-(5-methoxy-1,3-benzoxazol-2-yl)-3-azabicyclo[3.1.0]hex-6-yl](methyl)amino}-3-methylpyrimidin-4(3H)-one] the IC50 was 14.2 nM.
